We go through 1 molecule from article PMC3898987 (Bioorganic & Medicinal Chemistry, 2013).

In general, IC50 refers to the midpoint of a concentration-inhibition curve. High values mean a need for much substance, low ones inhibition by little substance. As usually defined, the Kd is the free concentration of one partner at which half of the binding sites on the other are occupied at equilibrium, for simple one-to-one binding. The low end stands for tighter binding, the high end for weaker binding.

Assay [1] deals with T1, 5-HT3AB receptor, 5-HT3B subunit E170A (Homo sapiens, UniProt P46098).
T1 construct: variant as stated: E170A
T1 sequence (P46098 24-478): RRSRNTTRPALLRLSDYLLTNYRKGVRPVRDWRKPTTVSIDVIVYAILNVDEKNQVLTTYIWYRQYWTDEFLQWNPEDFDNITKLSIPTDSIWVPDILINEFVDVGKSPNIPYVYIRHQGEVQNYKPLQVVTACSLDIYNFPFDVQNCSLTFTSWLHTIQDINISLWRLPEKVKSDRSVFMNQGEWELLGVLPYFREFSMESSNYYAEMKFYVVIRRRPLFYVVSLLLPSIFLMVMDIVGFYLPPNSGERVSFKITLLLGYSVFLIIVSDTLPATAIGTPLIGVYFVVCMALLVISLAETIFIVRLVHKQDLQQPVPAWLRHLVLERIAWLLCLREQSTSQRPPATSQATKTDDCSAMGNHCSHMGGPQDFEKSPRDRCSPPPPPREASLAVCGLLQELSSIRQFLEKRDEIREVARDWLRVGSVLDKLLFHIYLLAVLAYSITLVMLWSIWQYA
T1 sequence (O95264 22-441 partner): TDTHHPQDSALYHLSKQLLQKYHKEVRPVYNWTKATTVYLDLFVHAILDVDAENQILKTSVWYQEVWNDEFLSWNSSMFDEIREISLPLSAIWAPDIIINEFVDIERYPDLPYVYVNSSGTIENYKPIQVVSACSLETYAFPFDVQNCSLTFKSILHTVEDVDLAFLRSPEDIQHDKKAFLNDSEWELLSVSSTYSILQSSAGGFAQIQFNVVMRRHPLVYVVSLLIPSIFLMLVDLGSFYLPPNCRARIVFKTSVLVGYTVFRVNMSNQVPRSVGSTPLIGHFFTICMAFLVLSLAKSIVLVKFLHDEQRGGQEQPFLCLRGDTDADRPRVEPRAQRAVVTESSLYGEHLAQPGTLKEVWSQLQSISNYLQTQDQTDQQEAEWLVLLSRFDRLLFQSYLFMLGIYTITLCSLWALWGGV
The experiment in a line: FlexStation membrane potential dye functional assay, HEK293 cells. It counts as cell-based.
Description: Human embryonic kidney (HEK) 293 cells were cultured on 90 mm tissue culture plates at 37 °C and 7% CO2 in a humidified atmosphere. They were grown in DMEM:F12 (Dulbecco’s Modified Eagle’s Medium/Nutrient Mix F12 (1:1)) with GlutaMAX I™ containing 10% fetal calf serum and passaged when confluent. […] For FlexStation assays, transfected cells were plated on 96-well plates and incubated 1–2 days before assay.
Mutagenesis reactions were performed using either the Kunkel method or the QuikChange kit (Agilent Technologies Inc., CA, USA) using human 5-HT3A or 5-HT3B receptor subunit cDNA (accession numbers: P46098 and O95264) in pcDNA3.1 (Invitrogen, Paisley, UK). Subunit numberings have been altered to the aligning residues in the mouse 5-HT3A subunit for ease of comparison with other studies.
Fluorometric studies were undertaken using a FlexStation® (Molecular Devices, Sunnyvale, CA, USA) as previously described.[11]
Fluorescence was measured every 2 s for 200 s. […] Concentration–response and inhibition curves were obtained for each mutant, and the fluorescence values were normalized to the maximal response.

In another assay the target is T2, WT 5-HT3A receptor (Homo sapiens, UniProt P46098).
T2 sequence (P46098 24-478): T1 sequence (P46098 24-478)
Description: radioligand saturation binding, transfected HEK293 membranes. The settings on record: [3H]-palonosetron saturation, 4 °C, 24 h.

Assay [2] has as its target T3, 5-HT3AB receptor, 5-HT3B subunit W90C (Homo sapiens, UniProt O95264+P46098, W83C).
T3 sequence (P46098 24-478): T1 sequence (P46098 24-478)
T3 sequence (O95264 22-441 W83C): T1 sequence (O95264 22-441 partner) with W62C
The description is as above. To be noted: [3H]-palonosetron saturation, 5-HT3AB with 5-HT3B W90C, 4 °C, 24 h.
Description: (§1) Human embryonic kidney (HEK) 293 cells were cultured on 90 mm tissue culture plates at 37 °C and 7% CO2 in a humidified atmosphere. They were grown in DMEM:F12 (Dulbecco’s Modified Eagle’s Medium/Nutrient Mix F12 (1:1)) with GlutaMAX I™ containing 10% fetal calf serum and passaged when confluent. For radioligand binding studies, cells in 90 mm dishes were transfected at 60–70% confluency using polyethyleneimine and incubated for 3–4 days before use. For FlexStation assays, transfected cells were plated on 96-well plates and incubated 1–2 days before assay. […]
(§2) Eight-point binding assays were performed to produce saturation binding curves. […] Radioactive counts were measured using a Beckman LS6000SC liquid scintillation counter (Fullerton, California, USA).
(§3) Data were analyzed by iterative curve fitting using GraphPad Prism v5 (San Diego, CA) according to the following equation: B=Bmax[L]^n/kdn+[L]^n where B is the amount of bound radioligand, Bmax is the maximum specific binding at equilibrium, [L] is the concentration of radioligand, Kd is the equilibrium dissociation constant of the radioligand, and n is the Hill coefficient.

SMILES strings stand for the structures. Positions count from the first letter of the chain named.

Description for WT 5-HT3A receptor: as §1, §2, §3

The molecule `O=C1c2cccc3c2[C@H](CCC3)CN1[C@@H]1CN2CCC1CC2` [Palonosetron] showed a concentration for half-maximal inhibition (IC50) in assay [1] of 0.36 ± 0.11 nM. For the same molecule, the results for the Kd (at WT 5-HT3A receptor; in assay [2]) were 0.32 ± 0.07 nM and 0.34 ± 0.06 nM, respectively.
